Earlier results on 3 compounds are cited in PubChem BioAssay AID1259409 (Chemical Carcinogenesis Research Information System (CCRIS), 2018).

The test system of the data set is rodent chemically induced tumor inhibition, incidence and multiplicity. The data set is described as follows: CCRIS tumor inhibitor studies.

As for `C[C@H](CCC(=O)O)[C@H]1CC[C@H]2[C@@H]3[C@@H](O)C[C@@H]4C[C@H](O)CC[C@]4(C)[C@H]3CC[C@]12C`, the “tumour outcome (control, treated, inhibition, significance)” value by setting is: (Carcinogen: AZOXYMETHANE, 25843-45-2, Dose [Inhibitor]: 0, 0.2% IN DIET FOR 28 WK BEGINNING 2 WK PRIOR TO CARCINOGEN TREATMENT (STUDY DURATION: 30 WK), Route [Inhibitor]: ORAL, Species: RAT, Strain/Sex: F344/MALE, Target Tissue: Type of Lesion: COLON: TUMOR, Dose [Carcinogen]: 15 MG/KG BW 1/WK FOR 2 WK, Promoter: CHOLIC ACID, 81-25-4) 30/47 (64%), 20/47 (43%), 33%, not significant; (Carcinogen: AZOXYMETHANE, 25843-45-2, Dose [Inhibitor]: 0, 0.2% IN DIET FOR 28 WK BEGINNING 2 WK PRIOR TO CARCINOGEN TREATMENT (STUDY DURATION: 30 WK), Route [Inhibitor]: ORAL, Species: RAT, Strain/Sex: F344/MALE, Target Tissue: Type of Lesion: COLON: TUMOR, Dose [Carcinogen]: 15 MG/KG BW 1/WK FOR 2 WK, Promoter: NONE USED) 20/43 (47%), 23/48 (48%), -2%, not significant; (Carcinogen: AZOXYMETHANE, 25843-45-2, Dose [Inhibitor]: 0, 0.4% IN DIET FOR 28 WK BEGINNING 2 WK PRIOR TO CARCINOGEN TREATMENT (STUDY DURATION: 30 WK), Route [Inhibitor]: ORAL, Species: RAT, Strain/Sex: F344/MALE, Target Tissue: Type of Lesion: COLON: TUMOR, Dose [Carcinogen]: 15 MG/KG BW 1/WK FOR 2 WK, Promoter: NONE USED) 20/43 (47%), 10/45 (22%), 53%, p<0.05.
Take `O=C(O)/C=C/c1ccc(O)c(O)c1`: the “tumour outcome (control, treated, inhibition, significance)” value (Carcinogen: 4-NITROQUINOLINE-1-OXIDE, 56-57-5, Dose [Inhibitor]: 0, 500 PPM IN DIET FOR 7 WK BEGINNING 1 WK PRIOR TO START OF CARCINOGEN TREATMENT (STUDY DURATION: 32 WK), Route [Inhibitor]: ORAL, Species: RAT, Strain/Sex: F344/MALE, Target Tissue: Type of Lesion: TONGUE: PAPILLOMA, Dose [Carcinogen]: 20 PPM IN DRINKING WATER FOR 5 WK, Promoter: NONE USED) is 1/15 (7%), 0/15 (0%), 100%, not significant; the “tumour outcome (control, treated, inhibition, significance)” value (Carcinogen: 7,12-DIMETHYLBENZ[A]ANTHRACENE, 57-97-6, Dose [Inhibitor]: 0.5% IN POWDERED DIET BEGINNING 1 WK POST CARCINOGEN DOSE FOR 51 WK (STUDY DURATION: 52 WK), Route [Inhibitor]: ORAL, Species: RAT, Strain/Sex: SPRAGUE-DAWLEY/FEMALE, Target Tissue: Type of Lesion: EAR DUCT: BENIGN TUMOR, Dose [Carcinogen]: 2.5 MG/100 G BW IN 0.5 ML SESAME OIL ONCE, Promoter: NONE USED) is listed as 7/19 (37%), 10/19 (53%), -43%, not calculated; the “tumour outcome (control, treated, inhibition, significance)” value (Carcinogen: 7,12-DIMETHYLBENZ[A]ANTHRACENE, 57-97-6, Dose [Inhibitor]: 0.5% IN POWDERED DIET BEGINNING 1 WK POST CARCINOGEN DOSE FOR 51 WK (STUDY DURATION: 52 WK), Route [Inhibitor]: ORAL, Species: RAT, Strain/Sex: SPRAGUE-DAWLEY/FEMALE, Target Tissue: Type of Lesion: MAMMARY GLAND: CARCINOMA, Dose [Carcinogen]: 2.5 MG/100 G BW IN 0.5 ML SESAME OIL ONCE, Promoter: NONE USED) is 6/19 (32%), 9/19 (47%), -50%, not calculated; the “tumour outcome (control, treated, inhibition, significance)” value (Carcinogen: 7,12-DIMETHYLBENZ[A]ANTHRACENE, 57-97-6, Dose [Inhibitor]: 0.5% IN POWDERED DIET BEGINNING 1 WK POST CARCINOGEN DOSE FOR 51 WK (STUDY DURATION: 52 WK), Route [Inhibitor]: ORAL, Species: RAT, Strain/Sex: SPRAGUE-DAWLEY/FEMALE, Target Tissue: Type of Lesion: MAMMARY GLAND: FIBROADENOMA, Dose [Carcinogen]: 2.5 MG/100 G BW IN 0.5 ML SESAME OIL ONCE, Promoter: NONE USED) is on record as 15/19 (79%), 11/19 (58%), 27%, not calculated; the “tumour outcome (control, treated, inhibition, significance)” value (Carcinogen: 7,12-DIMETHYLBENZ[A]ANTHRACENE, 57-97-6, Dose [Inhibitor]: 10 UMOL IN 200 µL ACETONE/DMSO (90:10) 2/WK FOR 19 WK BEGINNING 1 WK POST CARCINOGEN DOSE (STUDY DURATION: 20 WK), Route [Inhibitor]: DERMAL, Species: MOUSE, Strain/Sex: CD-1/FEMALE, Target Tissue: Type of Lesion: SKIN: PAPILLOMA, Dose [Carcinogen]: 200 NMOL IN 200 µL ACETONE ONCE, Promoter: 12-O-TETRADECANOYLPHORBOL-13-ACETATE, 16561-29-8) is given as 68%, 47%, 31%, not calculated; the “tumour outcome (control, treated, inhibition, significance)” value (Carcinogen: 7,12-DIMETHYLBENZ[A]ANTHRACENE, 57-97-6, Dose [Inhibitor]: 20 UMOL IN 200 µL ACETONE/DMSO (90:10) 2/WK FOR 19 WK BEGINNING 1 WK POST CARCINOGEN DOSE (STUDY DURATION: 20 WK), Route [Inhibitor]: DERMAL, Species: MOUSE, Strain/Sex: CD-1/FEMALE, Target Tissue: Type of Lesion: SKIN: PAPILLOMA, Dose [Carcinogen]: 200 NMOL IN 200 µL ACETONE ONCE, Promoter: 12-O-TETRADECANOYLPHORBOL-13-ACETATE, 16561-29-8) is recorded as 68%, 38%, 44%, not calculated. In addition, the “tumour outcome (control, treated, inhibition, significance)” value runs as follows: (Carcinogen: BENZO[A]PYRENE, 50-32-8, Dose [Inhibitor]: 0.06 MMOL/G OF DIET STARTING 8 D BEFORE AND CONTINUING THROUGH 3 D AFTER LAST CARCINOGEN TREATMENT (STUDY DURATION: 148, Route [Inhibitor]: ORAL, Species: MOUSE, Strain/Sex: ICR/FEMALE, Target Tissue: Type of Lesion: FORESTOMACH: NEOPLASM, Dose [Carcinogen]: 1 MG IN 0.2 ML CORN OIL 2/WK FOR 4 WK, Promoter: NONE USED) 100%, 94%, 6%, not significant; (Carcinogen: N-NITROQUINOLINE-1-OXIDE, 56-57-5, Dose [Inhibitor]: 0, 500 PPM IN DIET FOR 7 WK BEGINNING 1 WK PRIOR TO START OF CARCINOGEN TREATMENT (STUDY DURATION: 32 WK), Route [Inhibitor]: ORAL, Species: RAT, Strain/Sex: F344\MALE, Target Tissue: Type of Lesion: TONGUE: CARCINOMA, Dose [Carcinogen]: 20 PPM IN DRINKING WATER FOR 5 WK, Promoter: NONE USED) 9/15 (60%), 0/15 (0%), 100%, p=0.00035.
Regarding `CCOC(=O)/C=C(C)/C=C/C=C(C)/C=C/c1c(C)cc(OC)c(C)c1C`, the “tumour outcome (control, treated, inhibition, significance)” value runs as follows: (Carcinogen: 7,12-DIMETHYLBENZ[A]ANTHRACENE, 57-97-6, Dose [Inhibitor]: 140 NMOL IN 0.2 ML ACETONE 2/WK (D 1 AND D 4 OF EACH WK) 1 HR BEFORE EACH PROMOTER APPLICATION STARTING 14 D AFTER CARCI, Route [Inhibitor]: DERMAL, Species: MOUSE, Strain/Sex: CD-1/FEMALE, Target Tissue: Type of Lesion: SKIN: PAPILLOMA, Dose [Carcinogen]: 0.2 UMOL IN 0.2 ML ACETONE ONCE, Promoter: 12-O-TETRADECANOYLPHORBOL-13-ACETATE, 16561-29-8) 90%, 38%, 58%, not calculated; (Carcinogen: TRANS-5-AMINO-3-[2-(5-NITRO-2-FURYL)VINYL]-1,2,4-OXADIAZOLE;SQL8506, 28754-68-9, Carcinogen: TRANS-5-AMINO-3-[2-(5-NITRO-2-FURYL)VINYL]-1,2,4-OXADIAZOLE;SQL8506, 28754-68-9, Dose [Inhibitor]: 75 MG/KG 18 HR BEFORE THE 1ST DOSE OF EACH CARCINOGEN TREATMENT (STUDY DURATION: LIFETIME), Route [Inhibitor]: ORAL, Species: MOUSE, Strain/Sex: CD-1/FEMALE, Target Tissue: Type of Lesion: HEMATOPOIETIC SYSTEM: MYELOID LEUKEMIA, Dose [Carcinogen]: 1 G/KG 2/D FOR 5 D EVERY 4 WK FOR 3 COURSES OF TREATMENT, Promoter: NONE USED) 7/137 (5%), 0/44 (0%), 100%, not calculated; (Carcinogen: TRANS-5-AMINO-3-[2-(5-NITRO-2-FURYL)VINYL]-1,2,4-OXADIAZOLE;SQL8506, 28754-68-9, Carcinogen: TRANS-5-AMINO-3-[2-(5-NITRO-2-FURYL)VINYL]-1,2,4-OXADIAZOLE;SQL8506, 28754-68-9, Dose [Inhibitor]: 75 MG/KG 18 HR BEFORE THE 1ST DOSE OF EACH CARCINOGEN TREATMENT (STUDY DURATION: LIFETIME), Route [Inhibitor]: ORAL, Species: MOUSE, Strain/Sex: CD-1/FEMALE, Target Tissue: Type of Lesion: LYMPHOID TISSUE: NONTHYMIC LYMPHOMA, Dose [Carcinogen]: 1 G/KG 2/D FOR 5 D EVERY 4 WK FOR 3 COURSES OF TREATMENT, Promoter: NONE USED) 8/137 (6%), 6/44 (14%), -133%, not calculated; (Carcinogen: TRANS-5-AMINO-3-[2-(5-NITRO-2-FURYL)VINYL]-1,2,4-OXADIAZOLE;SQL8506, 28754-68-9, Carcinogen: TRANS-5-AMINO-3-[2-(5-NITRO-2-FURYL)VINYL]-1,2,4-OXADIAZOLE;SQL8506, 28754-68-9, Dose [Inhibitor]: 75 MG/KG 18 HR BEFORE THE 1ST DOSE OF EACH CARCINOGEN TREATMENT (STUDY DURATION: LIFETIME), Route [Inhibitor]: ORAL, Species: MOUSE, Strain/Sex: CD-1/FEMALE, Target Tissue: Type of Lesion: LYMPHOID TISSUE: THYMIC LYMPHOMA, Dose [Carcinogen]: 1 G/KG 2/D FOR 5 D EVERY 4 WK FOR 3 COURSES OF TREATMENT, Promoter: NONE USED) 22/137 (16%), 5/44 (11%), 31%, not calculated; (Carcinogen: TRANS-5-AMINO-3-[2-(5-NITRO-2-FURYL)VINYL]-1,2,4-OXADIAZOLE;SQL8506, 28754-68-9, Carcinogen: TRANS-5-AMINO-3-[2-(5-NITRO-2-FURYL)VINYL]-1,2,4-OXADIAZOLE;SQL8506, 28754-68-9, Dose [Inhibitor]: 75 MG/KG 18 HR BEFORE THE 1ST DOSE OF EACH CARCINOGEN TREATMENT (STUDY DURATION: LIFETIME), Route [Inhibitor]: ORAL, Species: MOUSE, Strain/Sex: CD-1/FEMALE, Target Tissue: Type of Lesion: STOMACH: SQUAMOUS CARCINOMA, Dose [Carcinogen]: 1 G/KG 2/D FOR 5 D EVERY 4 WK FOR 3 COURSES OF TREATMENT, Promoter: NONE USED) 60/137 (44%), 26/44 (59%), -34%, not calculated.
